Assay results reported in patent US8183235B2, “Dihydronaphthalene compound and use thereof” (Tokyo University of Science Educational Foundation …, priority 2007, dated 2012).
Structures can show the parent of a compound that is named as a salt. Residues, ends and D or L forms follow the SMILES beside them. *: point of attachment. Cbz = O=C(OCc1ccccc1)*

How the values were obtained:
[1] = target: 20S proteasome chymotrypsin-like activity (Homo sapiens, UniProt P28074); assay: Chymotrypsin-like activity inhibition test; format: biochemical; conditions: for remaining activity at 10 µM: read-out: % Control, Chymotrypsin-like Activity
[2] = test system: central nervous system cancer cells; assay: Proliferation inhibition, central nervous system cancer cell panel (summary); format: cell-based; conditions: read-out: cytotoxic activity (extent of effective concentration)
Source text: (§1) As a comparison for the inhibition activity, tamoxifen citrate (TAM) was used. In the Table, the concentration units are μM.

[3] = target: 20S proteasome (Homo sapiens, UniProt P28072+P28074+Q99436); assay: Proteasome inhibition activity, overall judgement; format: biochemical; conditions: for The evaluations (proteasome inhibition activity): overall judgement positive/negative; for Proteasome selectivity: judgement
[4] = test system: St-4; assay: Proliferation inhibition of stomach cancer cells; format: cell-based; conditions: Homo sapiens
Experimental: as §1
(§2) In the same way as in Example 9, the proliferation inhibition activity of naforidaifens A to G was measured with respect to six types of stomach cancer cells (St-4, MKN1, MKN7, MKN28, MKN45, MKN74). In the Table, the concentration units are μM.

[5] = test system: MKN45; assay: Proliferation inhibition of stomach cancer cells; format: cell-based; conditions: Homo sapiens, MKN-45
Experimental: as §1, §2

[6] = test system: MKN1; assay: Proliferation inhibition of stomach cancer cells; format: cell-based; conditions: Homo sapiens, MKN-1
Experimental: as §1, §2

[7] = test system: MKN7; assay: Proliferation inhibition of stomach cancer cells; format: cell-based; conditions: Homo sapiens, MKN-7
Experimental: as §1, §2

[8] = test system: MKN28; assay: Proliferation inhibition of stomach cancer cells; format: cell-based; conditions: Homo sapiens, MKN-28
Experimental: as §1, §2

[9] = test system: MKN74; assay: Proliferation inhibition of stomach cancer cells; format: cell-based; conditions: Homo sapiens, MKN-74
Experimental: as §1, §2

[10] = test system: SF-539; assay: Inhibition of propagation of central nervous system cancer cells (sulforhodamin B); format: cell-based; conditions: Homo sapiens, 48 h; SF-539, two days of cultivation
Source text: as §1

[11] = test system: SNB-75; assay: as above; format: cell-based; conditions: Homo sapiens, 48 h; SNB-75, two days of cultivation
Source text: as §1

[12] = test system: SF-268; assay: as above; format: cell-based; conditions: Homo sapiens, 48 h; SF-268, two days of cultivation
Source text: as §1

[13] = test system: SNB-78; assay: as above; format: cell-based; conditions: Homo sapiens, 48 h; SNB-78, two days of cultivation
Source text: as §1

[14] = test system: U251; assay: as above; format: cell-based; conditions: Homo sapiens, U-251, 48 h; U251, two days of cultivation
Source text: as §1

[15] = test system: SF-295; assay: as above; format: cell-based; conditions: Homo sapiens, 48 h; SF-295, two days of cultivation
Source text: as §1

[16] = test system: KM-12; assay: Proliferation inhibition of colon cancer cells; format: cell-based; conditions: Homo sapiens, KM12
Experimental: as §1
(§3) In the same way as in Example 9, the proliferation inhibition activity of naforidaifens A to G was measured with respect to five types of colon cancer cells (HCC2998, KM-12, HT-29, HCT-15, and HCT-116). In the Table, the concentration units are μM.

[17] = test system: HCC2998; assay: Proliferation inhibition of colon cancer cells; format: cell-based; conditions: Homo sapiens, HCC 2998
Experimental: as §1, §3

[18] = test system: HCT-15; assay: Proliferation inhibition of colon cancer cells; format: cell-based; conditions: Homo sapiens
Experimental: as §1, §3

[19] = test system: HT-29; assay: Proliferation inhibition of colon cancer cells; format: cell-based; conditions: Homo sapiens
Experimental: as §1, §3

[20] = test system: HCT-116; assay: Proliferation inhibition of colon cancer cells; format: cell-based; conditions: Homo sapiens
Experimental: as §1, §3

[21] = test system: SK-OV-3; assay: Proliferation inhibition of ovarian cancer cells; format: cell-based; conditions: Homo sapiens
Experimental: as §1
(§4) In the same way as in Example 9, the proliferation inhibition activity of naforidaifens A to G was measured with respect to five types of ovarian cancer cells (OVCAR-3, OVCAR-4, OVCAR-5, OVCAR-8, AND SK-OV-3). In the Table, the concentration units are μM.

[22] = test system: OVCAR-4; assay: Proliferation inhibition of ovarian cancer cells; format: cell-based; conditions: Homo sapiens
Experimental: as §1, §4

[23] = test system: OVCAR-8; assay: Proliferation inhibition of ovarian cancer cells; format: cell-based; conditions: Homo sapiens
Experimental: as §1, §4

[24] = test system: OVCAR-5; assay: Proliferation inhibition of ovarian cancer cells; format: cell-based; conditions: Homo sapiens
Experimental: as §1, §4

[25] = test system: OVCAR-3; assay: Proliferation inhibition of ovarian cancer cells; format: cell-based; conditions: Homo sapiens
Experimental: as §1, §4

[26] = test system: Cathepsin B; assay: Cathepsin-like activity inhibition test; format: biochemical
Experimental: Cathepsin-Like Activity Inhibition Test
(§5) 1) To 20S proteasome, naforidaifen B adjusted to a concentration of 10 μM was added, and incubated at 30° C. for 10 min.
2) To the above test system, fluorescence labeled cathepsin including a 20S proteasome segmenting sequence was added, and reacted for 1 hr at 30° C.
(§6) 3) The fluorescent substance (AMC) released by the above reaction was excited with 360 nm light and assayed with 460 nm light.
(§7) 4) A test system to which naforidaifen B was not added was measured in the same way as (1) to (3) above, and the enzyme activity for the case of using naforidaifen B was measured.
(§8) 5) Stepwise diluted solutions containing naforidaifen B were prepared, and after carrying out the same evaluations as in (1) to (4), the 50% inhibition concentration (IC50) was determined.
6) As a positive control of the enzyme activity, the known proteasome inhibitor Clasto-Lactacystin β-Lactone (Lactacystin activator) and MGI32 were evaluated with the steps (1) to (5).

[27] = target: α-chymotrypsin (Bos taurus, UniProt P00766); assay: α-Chymotrypsin-like activity inhibition test; format: biochemical
Experimental: α-Chymotrypsin-Like Activity Inhibition Test
as §5
2) To the above test system, fluorescence labeled α-chymotrypsin including a 20S proteasome segmenting sequence was added, and reacted for 1 hr at 30° C.
as §6, §7, §8
6) As a positive control of the enzyme activity, the well-known proteasome inhibitor Clasto-Lactacystin β-Lactone (Lactacystin activator) and MGI32 were evaluated with the steps (1) to (5).

[28] = target: 20S proteasome caspase-like activity (Homo sapiens, UniProt P28072); assay: Caspase-like activity inhibition test; format: biochemical; conditions: for remaining activity at 10 µM: read-out: % Control, Caspase-like Activity
[29] = target: 20S proteasome trypsin-like activity (Homo sapiens, UniProt Q99436); assay: Trypsin-like activity inhibition test; format: biochemical; conditions: for remaining activity at 10 µM: read-out: % Control, Trypsin-like Activity

Row | Structure (SMILES) | IC50 [1] [µM] | remaining activity at 10 µM [1] [%] | GI50 [4] [µM] | GI50 [5] [µM] | GI50 [6] [µM] | GI50 [7] [µM] | GI50 [8] [µM] | GI50 [9] [µM] | GI50 [10] [µM] | GI50 [11] [µM] | GI50 [12] [µM] | GI50 [13] [µM] | GI50 [14] [µM] | GI50 [15] [µM] | GI50 [16] [µM] | GI50 [17] [µM] | GI50 [18] [µM] | GI50 [19] [µM] | GI50 [20] [µM] | GI50 [21] [µM] | further results
1 | CC(C)[C@H](O)[C@@]12NC(=O)[C@H](C)[C@@H]1OC2=O [Clasto-Lactacystin β-Lactone, reference compound] | 0.039 | – | – | – | – | – | – | – | – | – | – | – | – | – | – | – | – | – | – | – | % Control, Chymotrypsin-like Activity ([1]; Concentration 10 μM): 0%
2 | CC(C)C[C@@H](C=O)NC(=O)[C@H](CC(C)C)NC(=O)[C@H](CC(C)C)NC(=O)OCc1ccccc1 [MG132, reference compound] (Cbz-Leu-Leu-Leu-aldehyde) | – | 0 | – | – | – | – | – | – | – | – | – | – | – | – | – | – | – | – | – | – | –
3 | CN(C)CCOc1ccc(C2=C(c3ccccc3)CCc3cc(OCCN(C)C)ccc32)cc1 [Naforidaifen A, 4-[4-(2-dimethylamino-1-yl-ethoxy)phenyl]-7-(2-dimethylamino-1-yl-ethoxy)-3-phenyl-1,2-dihydronaphthalene] | > 10 | 99.5 | 1.48 | 1.74 | 1.48 | 1.58 | 1.82 | 1.41 | 1.55 | 1.48 | 1.95 | 1.82 | 1.45 | 1.74 | 1.86 | 1.48 | 1.66 | 0.759 | 1.1 | 2.29 | IC50 [2]: 1.4 to 1.9 µM; The evaluations (proteasome inhibition activity) [3]: negative; GI50 [22]: 2.14 µM; GI50 [23]: 2.88 µM; GI50 [24]: 1.55 µM; GI50 [25]: 1.62 µM
4 | c1ccc(C2=C(c3ccc(OCCN4CCCC4)cc3)c3ccc(OCCN4CCCC4)cc3CC2)cc1 [Naforidaifen B, 4-[4-(2-pyrrolidine-1-yl-ethoxy)phenyl]-7-(2-pyrrolidine-1-yl-ethoxy)-3-phenyl-1,2-dihydronaphthalene] | 4.6 | 27.1 | 1.86 | 1.66 | 1.48 | 1.58 | 2.19 | 1.66 | 1.86 | 2 | 2.09 | 1.91 | 1.58 | 1.91 | 1.95 | 1.58 | 2.34 | 1.45 | 1.26 | 3.09 | Proteasome selectivity [3]: present; The evaluations (proteasome inhibition activity) [3]: positive; Cathepsin B inhibition [26]: none; α-chymotrypsin inhibition [27]: none; IC50 [28]: 2.5 µM; remaining activity at 10 µM [28]: 16.5%; GI50 [22]: 1.32 µM; GI50 [23]: 3.8 µM; GI50 [24]: 1.62 µM; GI50 [25]: 1.58 µM; IC50 [29]: 8.6 µM; remaining activity at 10 µM [29]: 35.3%
5 | c1ccc(C2=C(c3ccc(OCCN4CCOCC4)cc3)c3ccc(OCCN4CCOCC4)cc3CC2)cc1 [Naforidaifen D, 4-[4-(2-morpholine-1-yl-ethoxy)phenyl]-7-(2-morpholine-1-yl-ethoxy)-3-phenyl-1,2-dihydronaphthalene] | 6.8 | 22.1 | 15.5 | 16.6 | 18.6 | 19.5 | 45.7 | 19.5 | 15.8 | 20.4 | 38.9 | 28.8 | 15.5 | 14.5 | 20 | 17.8 | 19.1 | 12.6 | 14.8 | 15.5 | Proteasome selectivity [3]: present; The evaluations (proteasome inhibition activity) [3]: positive; Cathepsin B inhibition [26]: none; α-chymotrypsin inhibition [27]: none; IC50 [28]: 4.6 µM; remaining activity at 10 µM [28]: 21.9%; GI50 [22]: 18.6 µM; GI50 [23]: 25.7 µM; GI50 [24]: 6.92 µM; GI50 [25]: 17.4 µM; IC50 [29]: 4.1 µM; remaining activity at 10 µM [29]: 21.6%
6 | CCN(CC)CCOc1ccc(C2=C(c3ccccc3)CCc3cc(OCCN(CC)CC)ccc32)cc1 [Naforidaifen E, 4-[4-(2-diethylamino-1-yl-ethoxy)phenyl]-7-(2-diethylamino-1-yl-ethoxy)-3-phenyl-1,2-dihydronaphthalene] | 9.9 | 49.6 | 1.55 | 1.66 | 1.41 | 1.41 | 1.82 | 1.23 | 1.86 | 1.51 | 1.82 | 1.62 | 1.51 | 1.82 | 1.95 | 1.58 | 1.58 | 0.813 | 1.2 | 1.91 | Proteasome selectivity [3]: present; The evaluations (proteasome inhibition activity) [3]: positive; Cathepsin B inhibition [26]: none; α-chymotrypsin inhibition [27]: none; IC50 [28]: > 10 µM; remaining activity at 10 µM [28]: 54.6%; GI50 [22]: 2.19 µM; GI50 [23]: 2.45 µM; GI50 [24]: 1.58 µM; GI50 [25]: 1.86 µM; IC50 [29]: > 10 µM; remaining activity at 10 µM [29]: 162%
7 | CC/C(=C(\c1ccccc1)c1ccc(OCCN(C)C)cc1)c1ccccc1 [TAM, tamoxifen citrate, reference compound] | – | – | 6.31 | 8.32 | 10.2 | 5.25 | 6.31 | 3.24 | 3.72 | 5.01 | 12 | 13.5 | 7.76 | 4.17 | 3.55 | 2.95 | 5.89 | 2.34 | 7.24 | 20 | GI50 [22]: 6.03 µM; GI50 [23]: 11.2 µM; GI50 [24]: 4.37 µM; GI50 [25]: 4.68 µM
